# Laboratory results as given in patent publication US11760761B2, “Methods and compositions for targeting PD-L1” (Aligos Therapeutics, Inc., priority 2020, dated 2023).
# What was measured:
# PDL1 = PDL1 (Homo sapiens (Human), UniProt Q9NZQ7); assay: PDL1 Dimerization Assay; assay type: biochemical; conditions: 0.5 nM PDL1-6xHis, 0.5 nM PDL1-strep; read-out: PD-L1 dimerization EC50
# Procedure: Serially diluted compounds were added to plate wells with the final concentration of DMASO at 1%. PDL1-6×His and PDL1-strep proteins were diluted in assay buffer (25 mM Hepes pH 7.4, 150 mM NaCl, 0.005% Tween 20, BSA 0.01%), added to the wells, and mixed well with the compounds. The plates were incubated for 2 h at room temperature. Anti-6×His Acceptor beads were added to the wells and the plates were further incubated for 1 h at room temperature. Strep-tactin Donor beads were added to the wells at reduced light. After additional 1 h incubation in the dark, the plates were read on a Envision reader. The final concentrations were 0.5 nM PDL1-6×His, 0.5 nM PDL1-strep, 20 ug/mL Anti-6×His Acceptor beads, 20 ug/mL Strep-tactin Donor beads. The EC50 values were determined by fitting the curves using a four-parameter equation in Graphpad Prism 8.
# PDL1/PD1 = PDL1/PD1 (Homo sapiens (Human), UniProt Q9NZQ7); assay: PDL1/PD1 Binding Assay; conditions: PDL1-6xHis 0.3 nM, PD1-Fc-Avi-Biotin 2.5 nM, Acceptor/Donor beads; read-out: PD-1/PD-L1 PPI IC50
# Sequence of PDL1/PD1 (Q9NZQ7 19-238): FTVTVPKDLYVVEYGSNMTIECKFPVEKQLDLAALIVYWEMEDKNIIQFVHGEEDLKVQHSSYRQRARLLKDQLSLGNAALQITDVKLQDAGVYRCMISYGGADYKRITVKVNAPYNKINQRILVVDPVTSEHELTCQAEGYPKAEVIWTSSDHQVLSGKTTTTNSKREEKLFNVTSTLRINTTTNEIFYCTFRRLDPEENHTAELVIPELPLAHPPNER
# Procedure: Compounds to be tested were serially diluted in DMSO, and further diluted in assay buffer (25 mM Hepes pH 7.4, 150 mM NaCl, 0.005% Tween 20, BSA 0.01%). Diluted compounds were added to the wells with final concentration of DMSO at 1%. PDL1-6×His protein was added to the wells, mixed well with compound. The plates were incubated for 30 min at room temperature. PD1-Fc-Avi-Biotin protein was added to the wells. Final concentration of PDL1 and PD1 protein is 0.3 nM and 2.5 nM, respectively. After a binding time of 30 min at room temperature, Anti-6×His Acceptor beads (final concentration 20 ug/ml) were added to the wells, and the incubation continued for 1 h. Streptavidin Donor beads (final concentration 20 ug/mL) were added at reduced light. The plates were sealed with foil and incubated in the dark for additional 1 h or overnight before reading on an Envision reader. The IC50 values were determined by fitting the curves using a four-parameter equation in Graphpad Prism 8.
# PD-1/PD-L1 interaction = PD-1/PD-L1 interaction (Homo sapiens (Human), UniProt Q9NZQ7); assay: PD-1/PD-L1 NFAT Reporter Assay (Jurkat T cells / PD-L1 expressing CHO cells co-culture); assay type: cell-based; conditions: for Emax: Jurkat, maximum NFAT-activation level relative to the positive control (10 nM Atezolizumab); for EC50: co-culture 6 hrs at 37° C., luciferase
# Sequence of PD-1/PD-L1 interaction (Q9NZQ7 19-290): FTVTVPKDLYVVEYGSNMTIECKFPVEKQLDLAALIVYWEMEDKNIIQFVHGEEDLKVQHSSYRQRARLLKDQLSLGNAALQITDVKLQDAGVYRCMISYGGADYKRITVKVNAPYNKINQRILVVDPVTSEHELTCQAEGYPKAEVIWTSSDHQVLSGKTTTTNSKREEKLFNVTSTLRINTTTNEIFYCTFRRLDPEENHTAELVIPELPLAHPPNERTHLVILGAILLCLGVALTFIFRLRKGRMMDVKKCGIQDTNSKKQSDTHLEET
# Procedure: Blocking the PD-1/PD-L1 interaction will release the inhibitory signal and results in TCR signaling and NFAT-mediated luciferase activity.
# CHO cells expressing surface-bound anti-CD3 antibodies and PD-L1 were first seeded overnight and treated with the compounds. Jurkat cells overexpressing PD-1 and a luciferase construct under NF-AT promoter were then immediately seeded on the monolayer of CHO cells. The co-culture was then incubated for 6 hrs at 37° C. Luciferase activity was assessed by adding the ONE-Glo reagent and measuring luminescence with a plate reader. EC50s values were determined from the fit of the dose-response curves Emax (%) corresponds to the maximum NFAT-activation level reached by a given compound relative to the positive control (10 nM Atezolizumab).
# Sequence of PDL1 (Q9NZQ7 19-238): as the sequence (Q9NZQ7 19-238) above
# Sequence of PDL1 (Q9NZQ7 19-238): as above
EC50 (PDL1),IC50 (PDL1/PD1),Emax (PD-1/PD-L1 interaction),EC50 (PD-1/PD-L1 interaction),SMILES
1000 to 10000 nM,≤ 10 nM,145%,100 to 1000 nM,"COc1cc(-c2cccc(-c3cccc(-c4cnc(CN5CC6(CCC(=O)N6)C5)c(OC)n4)c3Cl)c2Cl)cc2c1[C@H](N1CC3(CCC(=O)N3)C1)CC2 (single isomer, unassigned) [Compound A-8]"
1000 to 10000 nM,≤ 10 nM,105%,100 to 1000 nM,"COc1cc(-c2cccc(-c3cccc(-c4cnc(CN5CC(O)C5)c(OC)n4)c3Cl)c2Cl)cc2c1[C@@H](N1CC(O)C1)CC2 (single isomer, unassigned) [Compound A-9]"
1000 to 10000 nM,–,107%,100 to 1000 nM,"COc1cc(-c2cccc(-c3cccc(-c4cnc(CN5CC6(CCC(=O)N6)C5)c(OC)n4)c3Cl)c2Cl)cc2c1[C@H](NCC(=O)O)CC2 (single isomer, unassigned) [Compound B-2]"
1000 to 10000 nM,–,89%,1000 to 10000 nM,COc1cc(-c2cccc(-c3cccc(-c4cnc(CN5CC6(CCC(=O)N6)C5)c(OC)n4)c3Cl)c2Cl)cc2c1[C@@H](NCC(=O)O)CC2 [Compound B-1]
